For 3 compounds, lifespan extension effect and lifespan extension results are on record in patent US20210340552A1, “High-Throughput Screening Platform for Longevity Genes and Anti-Aging Drugs” (The Regents of the University of California, priority 2018, published 2021).

The subject of this assay is yeast cells. Description: Replicative lifespan (RLS) measurement with the DAP yeast strain and 96-well microfluidic device. The format is cell-based, Saccharomyces cerevisiae. Here is the method:
The IDS2GH or IDS2RH transformed yeast cells were cultured in YEPG [For 1 L medium: Bacto yeast extract (Difco 0127-17) (1%) 10 g, Bacto peptone (Difco 0118-17) (2%) 20 g, Galactose (2%) 20 g] at 30° C. for 15 hours, after which time the cells were diluted 1:20 in fresh YEPG and grown for another 3 hours. The cells were centrifuged and washed 3 times with YEP [For 1 L medium: Bacto yeast extract (Difco 0127-17) (1%) 10 g, Bacto peptone (Difco 0118-17) (2%) 20 g]. Finally, the cells were resuspended in an equal volume of YEP, then diluted at a 1:5 ratio in fresh YEP and incubated at 30° C. for another 3 hours; this last step allowed separation of any aggregates of cells.
The water in the wells was discarded, and 100 μl of cells (˜1×10^6 cells/ml) were loaded into inlet wells in columns 1, 4, 7, 10 of the multiwell plate. The plate was then sealed with the 32-channel cover by applying vacuum to the sealing channel, and cell flow started by applying 4 psi air pressure to the loading channel for 10 seconds. Any remaining cells in the wells are discarded, and 300 μl autoclaved ddH2O added to wash the cells, applying 25 psi air pressure to the loading channel for 10 seconds. The remaining water in the wells was again discarded, and 300 μl YEPD [For 1 L medium: Bacto yeast extract (Difco 0127-17) (1%) 10 g, Bacto peptone (Difco 0118-17) (2%) 20 g, Dextrose (2%) 20 g] added, and the cells were washed by applying 2 psi air pressure to the loading channel for 240 seconds. The remaining YEPD in the wells was discarded and 300 μl fresh YEPD added to each well in columns 1, 3, 4, 6, 7, 9, 10, 12. […]
Using the DAP system and the high-throughput microfluidic devices, the lifespan of a number of mutants and the effect of several drugs on lifespan were analyzed. […] The total number of cells in each trapping unit was counted and the fluorescent signal was used to determine the number of DAP mother cells loaded in the trapping unit, allowing the lifespan of the mother cells to be determined unambiguously. […]

Turning to `CN(C)C(=N)N=C(N)N` [metformin], the lifespan extension effect result (range of concentrations tested from 4 μM to 8 mM, data not shown) is given as “not observed”. As to `CO[C@H]1C[C@@H]2CC[C@@H](C)[C@@](O)(O2)C(=O)C(=O)N2CCCC[C@H]2C(=O)O[C@H]([C@H](C)C[C@@H]2CC[C@@H](O)[C@H](OC)C2)CC(=O)[C@H](C)/C=C(\C)[C@@H](O)[C@@H](OC)C(=O)[C@H](C)C[C@H](C)/C=C/C=C/C=C/1C` [rapamycin], the lifespan extension (100 nM concentration, three independent experiments, p=2.4×10^−10, FIG. 4A) is recorded as 19%. As to `NCCCCNCCCN` [spermidine], the lifespan extension (200 JIM concentration, p=6×10^−6, FIG. 4B) amounted to 28%.
